Format in all cases: cell-based
One test deals with hTERT‐RPE‐1 cells. The test can be described thus: Cell growth assay (MTS), non-tumorigenic hTERT-RPE-1 cells. The conditions noted are these: 72 h, the maximum concentration used in the MTS assay is reported, read-out: h‐TERT‐RPE‐1 (IC50). The protocol: (§1) HL‐60 cells were obtained from ATCC® (CCL‐240), whereas its variant HL‐60R was selected for MDR by exposure to gradually increasing concentrations of doxorubicin. MCF‐7 cells were obtained from ATCC® (HTB‐22). The nontumorigenic cell lines hTERT‐RPE‐1 (ATCC, CRL‐4010) and 1‐7HB2 (ECACC 10081201‐Cancer Research Technology) was kindly provided by Prof. Patrizia Cancemi and Prof. Giulio Ghersi (STEBICEF Department, University of Palermo, Italy), respectively. Cells were cultured in a humidified atmosphere at 37°C in 5% CO2. After obtaining the cells, the first passage carried out was assigned passage number 1. Cells with a narrow range of passage number […] were routinely tested for Mycoplasma contamination and were used for all experiments. HL‐60 and HL‐60R cells were cultured in Roswell Park Memorial Institute (RPMI) 1640, while MCF‐7, hTERT‐RPE‐1, and 1‐7HB‐2 cells were cultured in Dulbecco's Modified Eagle Medium (DMEM) (HyClone Europe Ltd.) low glucose, in particular only for 1‐7HB‐2 cells supplemented with hydrocortisone (5 μg/ml) and insulin (10 μg/ml). All media were supplemented with 10% heat‐inactivated fetal calf serum, 2 mM L‐glutamine, 100 U/ml penicillin, and 100 μg/ml streptomycin (all reagents were from EuroClone S.p.A.; GE Healthcare Life Sciences).
(§2) Cells were seeded at 5 × 10^3 cells/well onto 96 well plates and incubated overnight at 37°C. At time 0, the medium was replaced with fresh complete medium supplemented with the [1,2]oxazolo[5,4‐e]isoindoles at large concentrations range. Following 72 h of treatment, 15 µl commercial solution obtained from Promega Corp. containing 3‐(4,5‐dimethylthiazol‐2‐yl)−5‐(3‐carboxymethoxyphenyl)−2‐(4‐sulphophenyl)−2H‐tetrazolium (MTS) and phenazine ethosulfate was added. The plates were incubated in a humidified atmosphere at 37°C in 5% CO2 for 2 h, and the bioreduction of MTS dye was evaluated by measuring the absorbance of each well at 490 nm using a microplate absorbance reader (iMark Microplate Reader; Bio‐Rad Laboratories, Inc.). Cell growth inhibition was expressed as a percentage of the absorbance of the control cells. Data were expressed as mean ± standard error (SE) of at least three different experiments performed in triplicate.

A further test has as its system 1‐7HB2 cells. Nature of the test: Cell growth assay (MTS), non-tumorigenic 1-7HB2 cells. The conditions noted are these: 72 h, the maximum concentration used in the MTS assay is reported. The protocol:
as §1, §2

For another test, the system named is MCF‐7 cells. Nature of the test: Cell growth assay (MTS), MCF-7 breast cancer cells. The conditions noted are these: 72 h, the maximum concentration used in the MTS assay is reported. The protocol: as §1, §2
A general note: Tetrazolium dyes change colour on reduction, which living cells bring about.

The test system of test [1] is HL‐60R cells. Nature of the test: Cell growth assay (MTS), HL-60R MDR variant. The following applies: 72 h of treatment, mean ± SE. The protocol: as §1, §2
The test system of the next test is HL‐60 cells. The test can be described thus: Cell growth assay (MTS), HL-60 cells. The following applies: mean ± SE. The protocol: as §1, §2
In test [2] the test system is HL‐60R cells. The test can be described thus: Viable cell count with Trypan blue exclusion test (cotreatments). The conditions noted are these: for synergistic / potentiation effect with the reference drugs (VIN or PTX): cotreatment at sub-cytotoxic concentrations. The protocol: Potentiation or synergism due to cotreatments were evaluated by viable cell count with Trypan blue exclusion test. Data were expressed as mean ± SE of at least three different experiments performed in duplicate.

A further test concerns HL‐60R cell line. Nature of the test: Intracellular accumulation of doxorubicin (flow cytometry). Here is the method: The effects of 4e and 4k on intracellular accumulation of doxorubicin were evaluated in the HL‐60R cell line. […] After 24 h of incubation doxorubicin 2 µM was added for 1 h. The cells were subsequently washed with PBS twice and then resuspended in a final volume of 400 µl of PBS. The fluorescence intensity of doxorubicin was measured by flow cytometry using a FACSAria III instrument (Becton Dickinson).
For orientation: Flow cytometry measures light scatter and fluorescence of single cells or particles in a stream.

As usually defined, the IC50 is the point on the concentration scale where inhibition reaches its midpoint. As to `COc1ccccc1Cn1cc2c(c1)-c1oncc1CC2` [4b], the IC50 in the test with hTERT‐RPE‐1 cells was greater than 20 µM; in the test on 1‐7HB2 cells, greater than 20 µM; in the test on MCF‐7 cells, greater than 50 µM; with HL‐60R cells [1] it was 2400 ± 800 nM; in the test with HL‐60 cells (72 h of treatment), 2100 ± 400 nM.

On to `c1ccc(Cn2cc3c(c2)-c2oncc2CC3)cc1` [4a], for which the concentration for half-maximal inhibition (IC50) was greater than 20 µM in the test with hTERT‐RPE‐1 cells; greater than 20 µM in the test on 1‐7HB2 cells; greater than 50 µM in the test on MCF‐7 cells; 2100 ± 200 nM in the test with HL‐60R cells [1]; 1900 ± 900 nM in the test on HL‐60 cells (72 h of treatment). Moreover, the “Cell growth inhibition (%)” value in the test with HL‐60R cells [2] (48 h, alone at 1 µM) was determined as 2.5 ± 1.8%. In addition, in the test with HL‐60R cells [2], the “synergistic / potentiation effect with the reference drugs (VIN or PTX)” value (shortened to “synergistic / potentiation effect”) is listed as “synergistic effect”.

Regarding `COc1cccc2c1C(=O)c1c(O)c3c(c(O)c1C2=O)C[C@@](O)(C(=O)CO)C[C@@H]3O[C@H]1C[C@H](N)[C@H](O)[C@H](C)O1` [Doxorubicin, doxorubicin, reference compound], the “Fluorescence (%) HL‐60R” value stood at 4.4% in the test with HL‐60R cell line (Doxo 2 µM 1 h alone) and 4.4 ± 0.3% in the test on HL‐60R cell line (Doxo 2 µM 1 h alone, listed as Doxo).

Regarding `COc1cccc(Cn2cc3c(c2)-c2oncc2CC3)c1` [4c], the IC50 was greater than 5 µM with hTERT‐RPE‐1 cells, greater than 5 µM in the test on 1‐7HB2 cells and greater than 50 µM in the test with MCF‐7 cells. Further, the “Cell growth inhibition (%)” value in the test on HL‐60R cells [2] (48 h, alone at 0.2 µM) worked out at 42.5 ± 0.3%. In the test on HL‐60R cells [2], the “synergistic / potentiation effect” value is “synergistic effect”.

With `COc1cc(Cn2cc3c(c2)-c2oncc2CC3)cc(OC)c1OC` [4e], the “Fluorescence (%) HL‐60R” value in the test with HL‐60R cell line (0.04 µM for 24 h, without doxorubicin) is given as 0.2 ± 0.07%. For the same compound, the “Fluorescence (%) HL‐60R (intracellular accumulation of doxorubicin)” value in the test with HL‐60R cell line (pretreated 0.04 µM for 24 h + Doxo 2 µM 1 h) is given as 8.8 ± 0.3 %. Moreover, the half-inhibitory concentration (IC50) with hTERT‐RPE‐1 cells is greater than 0.1 µM; with 1‐7HB2 cells it was greater than 0.1 µM; in the test on MCF‐7 cells it was greater than 5 µM. The “synergistic / potentiation effect” value in the test with HL‐60R cells [2] was “not detected any potentiation”.

By inhibition is commonly meant the relative decrease from the control value, in per cent. Consider `CC[C@]1(O)C[C@@H]2CN(CCc3c([nH]c4ccccc34)[C@@](C(=O)OC)(c3cc4c(cc3OC)N(C)[C@H]3[C@@](O)(C(=O)OC)[C@H](OC(C)=O)[C@]5(CC)C=CCN6CC[C@]43[C@@H]65)C2)C1` [Vinblastine, reference compound], for which the inhibition at 0.3 µM in the test on HL‐60R cells [2] (HL60R, 48 h, alone at 0.3 µM, read-out: Cell growth inhibition (%)) amounted to 0%. In addition, the 50% inhibitory concentration (IC50) in the test on HL‐60R cells [1] (HL60R) came out at 820 ± 20 nM; in the test on HL‐60 cells (Homo sapiens, HL-60, 72 h of treatment) it was 50 nM.

Consider `COc1ccc(CCN(C)CCCC(C#N)(c2ccc(OC)c(OC)c2)C(C)C)cc1OC` (centres unmarked) [Verapamil, reference compound], for which, in the test with HL‐60R cell line (10 µM for 24 h, without doxorubicin), the “Fluorescence (%) HL‐60R” value turned out to be 0.3 ± 0.1%. The “Fluorescence (%) HL‐60R (intracellular accumulation of doxorubicin)” value with HL‐60R cell line (pretreated 10 µM for 24 h + Doxo 2 µM 1 h) was 58.5 ± 2.5 %.

As to `COc1ccc(Cn2cc3c(c2)-c2oncc2CC3)cc1OC` [4d], the IC50 with hTERT‐RPE‐1 cells was greater than 5 µM; with 1‐7HB2 cells, greater than 5 µM; in the test with MCF‐7 cells, greater than 50 µM; in the test with HL‐60R cells [1] it was 700 ± 90 nM; in the test on HL‐60 cells (72 h of treatment), 600 ± 10 nM.

Source of the values: article PMC9540667, “Novel insights on [1,2]oxazolo[5,4‐e]isoindoles on multidrug resistant acute myeloid leukemia cell line” (Drug Development Research, 2022).
